The conditions of data set [1]: cited from earlier work.
Data set [2] can be described thus: Crystal suspensions of microcrystalline paclitaxel in different solvent mixtures. Further details: key: +++: good; +/−: average; −−−: poor. The format is physicochemical. To be noted: with trioctanoylglycerol. The procedure: To prepare the solutions, 770 mg of trioctanoylglycerol was dissolved in the polar solvent. Then the nonpolar solvent was added. It was then homogenized and filtered.
To test whether crystal suspension could be prepared, 10 mL of each of the solutions was carefully added to 200 mg of paclitaxelin the form of microcrystals at room temperature. After combining, it was tested whether stable crystal suspensions were obtained.

The nature of data set [3]: Preparation and stability of crystal suspensions of microcrystalline paclitaxel with solutions of different tri-O-acylglycerols. To be noted: for microcrystals intact in SEM images: SEM 200× and 1000×; for microcrystals of paclitaxel dissolve directly in the solution: directly after combining, room temperature.
Source text: In the first step, solutions of tri-O-acylglycerols were first prepared in a solvent mixture. Subsequently, the solutions were combined with microcrystals of paclitaxel to investigate which tri-O-acylglycerols could be used to obtain stable crystal suspensions. […] For the preparation of the solutions, an ethyl acetate/heptane solvent mixture was used here as an example.
To prepare the solutions, the respective tri-O-acylglycerol was first dissolved in a polar organic solvent and then a non-polar solvent was added.
To prepare the solutions, 770 mg of the respective tri-O-acylglycerol were dissolved in 14 g ethyl acetate (15.6 mL). Then, 57.4 g of n-heptane (84.4 mL) was added.
Subsequently, homogenization and filtration were performed. The total volume of the solvent mixture is 100 mL.
To a precisely weighed amount of dry microcrystals of the previously prepared paclitaxel, a defined amount of the solutions containing tri-O-acylglycerol and optionally antioxidant is carefully added.
To check whether crystal suspension can be prepared, to each 200 mg of paclitaxel in the form of microcrystals were carefully added 10 mL of one of the solutions 1a) to 1j) at room temperature. Six mixtures of 10 mL of solution for each solution were prepared. After combining, it was tested whether the microcrystals of paclitaxel dissolved directly in the solutions.
To evaluate the crystal size, particle size distribution (i.e., crystal size distribution), and shape of the crystals, a sample was taken with a Pasteur pipette in each case and a drop was placed on the slide of the SEM sample plate. SEM images were taken at 200× and 1000× magnification for evaluation.
To evaluate the crystal size, particle size distribution (i.e., crystal size distribution), and shape of the crystals, one sample was taken from each using a Pasteur pipette and one drop was placed on the foil of the SEM sample plate. An additional sample was taken from the sediment and one drop was placed on the slide of the SEM sample plate. SEM images were taken at 200× and 1000× magnification for evaluation. SEM images were taken at 200 and 1000× magnification for evaluation.
To prepare the solutions, 770 mg of the respective tri-O-acylglycerol were dissolved in 14 g ethyl acetate (15.6 mL). Then, 57.4 g of n-heptane (84.4 mL) was added. Subsequently, homogenization and filtration were performed. The total volume of the solvent mixture is 100 mL.
Three mixtures of 10 mL of solution for each solution were prepared. After combining, it was tested whether the microcrystals dissolved directly in these solutions.

Each structure is given as a SMILES string. Where two headings read alike, the source gives them in different places.

As to `C1COCCO1` [1,4-Dioxane], the logKOW is recorded as −0.4 in data set [1] (Table 6, rounded values) and −0.42 in data set [1] (Table 7). Further, the “log KOW” value in data set [1] is “about −0.4”.
For `CCCCc1ccccc1` [1-Phenylbutane], the logKOW in data set [1] (Table 4) is given as 3.4.
For `CC(C)CC(C)(C)C` [2,2,4-Trimethylpentane], the logKOW in data set [1] (Table 2, rounded values) is reported as 4.1.
Turning to `CCC(C)(C)C` [2,2-Dimethylbutane], in data set [1] (Table 2, rounded values), the logKOW is given as 3.8.
On to `CCCC(C)(C)C` [2,2-Dimethylpentane], for which the logKOW in data set [1] (Table 2, rounded values) was 3.8.
For the compound `CCC(C)C(C)C` (centres unmarked) [2,3-Dimethylpentane], the logKOW in data set [1] (Table 2, rounded values) is on record as 3.8.
With `CC(C)Cc1ccccc1` [2-Methyl-1-phenylpropane], the logKOW in data set [1] (Table 4) is 3.4.
`CCCCC(C)C` [2-Methylhexane]: the logKOW in data set [1] (Table 2, rounded values) is 3.7.
`CCCC(C)C` [2-Methylpentane]: the logKOW in data set [1] (Table 2, rounded values) is recorded as 3.6.
Take `CCC(C)c1ccccc1` (centres unmarked) [2-Phenylbutane]: the logKOW in data set [1] (Table 4) is 3.4.
As to `CC(C)=O` [Acetone], the logKOW is on record as −0.2 in data set [1] (Table 6, rounded values) and −0.24 in data set [1] (Table 7).
Consider `CC#N` [Acetonitrile], for which the logKOW is −0.3 in data set [1] (Table 6, rounded values) and −0.34 in data set [1] (Table 7).
As for `COc1ccccc1` [Anisol], the logKOW in data set [1] (Table 4) is listed as 2.1.
With `ClC(Cl)(Cl)Cl` [Carbon tetrachloride], the logKOW result is on record as “approx. 2.8” in data set [1] (Table 3, rounded orientation values) and 2.8 in data set [1] (Table 4).
Regarding `Clc1ccccc1` [Chlorobenzene], the logKOW in data set [1] (Table 4) is 2.9. Also, the “log KOW” value in data set [1] is listed as “about 2.9”.
On to `CC(C)c1ccccc1` [Cumol], for which the logKOW in data set [1] (Table 4) is 3.4.
As to `C1CCCCCCCCC1` [Cyclodecane], the logKOW in data set [1] (Table 2, rounded values) was 5.5.
Consider `C1CCCCCC1` [Cycloheptane], for which the logKOW in data set [1] (Table 2, rounded values) is on record as 4.
On to `C1CCCCCCCC1` [Cyclononan], for which the logKOW in data set [1] (Table 2, rounded values) is given as 5.1.
Regarding `C1CCCC1` [Cyclopentane], the logKOW is listed as 3.0 in data set [1] (Table 2, rounded values) and 3.00 in data set [1] (Table 8).
With `CCCCCCCCCC` [Decan], the logKOW in data set [1] (Table 2, rounded values) is recorded as 6.3.
Turning to `ClCCl` [Dichloromethane], the logKOW result in data set [1] (Table 6, rounded values) is recorded as “+1.3”; in data set [1] (Table 7) it was 1.25.
For the compound `CCOCC` [Diethyl ether], the logKOW entry in data set [1] (Table 6, rounded values) was “+0.9”; in data set [1] (Table 7) it was 0.89.
Regarding `CCCOCCC` [Dipropyl ether], the logKOW result in data set [1] (Table 6, rounded values) is given as “+2.0”.
In the case of `CCOc1ccccc1` [Ethoxybenzene], the logKOW in data set [1] (Table 4) is on record as 2.5.
With `CCOC(C)=O` [Ethyl acetate], the logKOW result in data set [1] (Table 6, rounded values) is on record as “+0.7”; in data set [1] (Table 7) it was 0.73.
Take `CCc1ccccc1` [Ethylbenzene]: the logKOW in data set [1] (Table 4) is 3.2.
For the compound `OCC(O)CO` [Glycerin], the logKOW in data set [1] (Table 6, rounded values) is on record as −1.8.
Regarding `CCCCCCC` [Heptane], the logKOW in data set [1] (Table 2, rounded values) was 4.5; in data set [1] (Table 8), 4.50.
Regarding `CCC(C)C` [Isopentane], in data set [1] (Table 2, rounded values), the logKOW is 3.2.
Take `CO` [Methanol]: the logKOW in data set [1] (Table 6, rounded values) is on record as −0.7; in data set [1] (Table 7) it was −0.74.
`COC(C)=O` [Methyl acetate]: the logKOW entry in data set [1] (Table 6, rounded values) is on record as “+0.2”.
Take `CC1CCCCC1` [Methylcyclohexane]: the logKOW in data set [1] (Table 2, rounded values) was 3.9.
In the case of `CC1CCCC1` [Methylcyclopentane], the logKOW in data set [1] (Table 2, rounded values) was 3.4.
As for `CN1CCCC1=O` [N-methylpyrrolidone], the logKOW in data set [1] (Table 6, rounded values) is listed as −0.5.
For `CCCCCCCCC` [Nonan], the logKOW in data set [1] (Table 2, rounded values) is on record as 5.7.
In the case of `CCCCCCCC` [Octane], the logKOW in data set [1] (Table 2, rounded values) is 5.2.
On to `CCC(=O)O` [Propionic acid], for which the logKOW in data set [1] (Table 7) is on record as 0.32.
For `CCC(C)=O` [Solution 2-Butanone, 2-Butanone], the logKOW in data set [1] (Table 7) is recorded as 0.29.
In the case of `CCCC(C)=O` [Solution 2-Pentanone, 2-Pentanone], the logKOW result is “+0.9” in data set [1] (Table 6, rounded values) and 0.84 in data set [1] (Table 7).
As to `FC(F)(F)C(F)(F)C(F)(F)C(F)(F)C(F)(F)C(F)(F)F` [Tetradecafluorohexane], the logKOW in data set [1] (Table 4) is on record as 5.8.
In the case of `C1CCOC1` [Tetrahydrofuran (THF), Tetrahydrofuran], the logKOW result in data set [1] (Table 6, rounded values) is listed as “+0.5”; in data set [1] (Table 7), 0.46.
For `O` [Water], in data set [1] (Table 5, rounded orientation values), the logKOW entry is “approx. −1.4”.
On to `CC(C)Cc1ccccc1` [iso-butylbenzene], for which, in data set [1] (Table 4), the logKOW is reported as 4.1.
Consider `Cc1cccc(C)c1` [m-Xylene], for which the figures for the logKOW in data set [1] (Table 4) and in data set [1] (Table 8) were 3.2 and 3.20, respectively.
On to `CCCOC(C)=O` [n-Propyl acetate], for which, in data set [1] (Table 6, rounded values), the logKOW entry was “+1.4”.
As to `Clc1ccccc1Cl` [o-Dichlorobenzene], in data set [1] (Table 4), the logKOW was 3.4.
Regarding `Cc1ccccc1C` [o-Xylene], the logKOW in data set [1] (Table 4) is reported as 3.1; in data set [1] (Table 8) it was 3.12.
As for `Cc1ccc(C)cc1` [p-Xylene], the logKOW was 3.2 in data set [1] (Table 4) and 3.15 in data set [1] (Table 8).
As for `CC(=O)O[C@H]1C(=O)[C@@]2(C)[C@H]([C@H](OC(=O)c3ccccc3)[C@]3(O)C[C@H](OC(=O)[C@H](O)[C@@H](NC(=O)c4ccccc4)c4ccccc4)C(C)=C1C3(C)C)[C@]1(OC(C)=O)CO[C@@H]1C[C@@H]2O` [paclitaxel, (2α,4α,5β,7β,10β,13α)-4,10-Bis(acetyloxy)-13-{[(2R,3S)-3-(benzoylamino)-2-hydroxy-3-phenylpropanoyl]oxy}-1,7-dihydroxy-9-oxo-5,20-epoxytax-11-en-2-yl-benzoat], the Crystal suspension entry in data set [2] (Acetone/Cyclohexane 10:90 (v/v polar/non-polar)) was “+++”; in data set [2] (Acetone/Cyclohexane 50:50 (v/v polar/non-polar)), “−−−”; in data set [2] (Acetone/Cyclohexane 60:40 (v/v polar/non-polar)) it was “−−−”; in data set [2] (Acetone/Heptane 10:90 (v/v polar/non-polar)) it was “+++”; in data set [2] (Acetone/Heptane 60:40 (v/v polar/non-polar)) it was “−−−”; in data set [2] (Acetone/Hexane 10:90 (v/v polar/non-polar)), “+++”. Moreover, the Crystal suspension result in data set [2] (Acetone/Hexane 50:50 (v/v polar/non-polar)) is recorded as “−−−”; in data set [2] (Acetone/Hexane 60:40 (v/v polar/non-polar)) it was “−−−”; in data set [2] (Ethanol/Cyclohexane 10:90 (v/v polar/non-polar)) it was “+++”; in data set [2] (Ethanol/Cyclohexane 60:40 (v/v polar/non-polar)) it was “−−−”; in data set [2] (Ethanol/Heptane 10:90 (v/v polar/non-polar)) it was “+++”; in data set [2] (Ethanol/Heptane 60:40 (v/v polar/non-polar)), “−−−”. In addition, the Crystal suspension entry is “+++” in data set [2] (Ethanol/Hexane 10:90 (v/v polar/non-polar)); “−−−” in data set [2] (Ethanol/Hexane 60:40 (v/v polar/non-polar)); “+++” in data set [2] (Ethyl acetate/Cyclohexane 10:90 (v/v polar/non-polar)); “+++” in data set [2] (Ethyl acetate/Cyclohexane 30:70 (v/v polar/non-polar)); “+++” in data set [2] (Ethyl acetate/Cyclohexane 40:60 (v/v polar/non-polar)); “+/−” in data set [2] (Ethyl acetate/Cyclohexane 60:40 (v/v polar/non-polar)). Moreover, the Crystal suspension entry in data set [2] (Ethyl acetate/Heptane 10:90 (v/v polar/non-polar)) is “+++”; in data set [2] (Ethyl acetate/Heptane 30:70 (v/v polar/non-polar)), “+++”; in data set [2] (Ethyl acetate/Heptane 40:60 (v/v polar/non-polar)), “+++”; in data set [2] (Ethyl acetate/Heptane 60:40 (v/v polar/non-polar)) it was “+/−”; in data set [2] (Ethyl acetate/Hexane 10:90 (v/v polar/non-polar)) it was “+++”; in data set [2] (Ethyl acetate/Hexane 30:70 (v/v polar/non-polar)), “+++”. The Crystal suspension result in data set [2] (Ethyl acetate/Hexane 40:60 (v/v polar/non-polar)) is listed as “+++”; in data set [2] (Ethyl acetate/Hexane 60:40 (v/v polar/non-polar)), “+/−”; in data set [2] (iso-propanol/Cyclohexane 10:90 (v/v polar/non-polar)) it was “+++”; in data set [2] (iso-propanol/Cyclohexane 50:50 (v/v polar/non-polar)) it was “−−−”; in data set [2] (iso-propanol/Cyclohexane 60:40 (v/v polar/non-polar)), “−−−”; in data set [2] (iso-propanol/Heptane 10:90 (v/v polar/non-polar)), “+++”. Also, the Crystal suspension result in data set [2] (iso-propanol/Heptane 50:50 (v/v polar/non-polar)) is listed as “−−−”; in data set [2] (iso-propanol/Heptane 60:40 (v/v polar/non-polar)), “−−−”; in data set [2] (iso-propanol/Hexane 10:90 (v/v polar/non-polar)), “+++”; in data set [2] (iso-propanol/Hexane 50:50 (v/v polar/non-polar)) it was “−−−”; in data set [2] (iso-propanol/Hexane 60:40 (v/v polar/non-polar)) it was “−−−”.
As for `CC(C)(C)C1CCCCC1` [tert-butylcyclohexane], the logKOW in data set [1] (Table 2, rounded values) is 4.0.
For the compound `CCCCCCCCCCCC(=O)OCC(COC(=O)CCCCCCCCCCC)OC(=O)CCCCCCCCCCC` [tridodecanoylglycerol], in data set [3], the “sedimentation of the microcrystals” value is “sedimentation of the crystals occurred”, the “state of paclitaxel microcrystals in the suspension after 100 h” value is listed as “did not dissolve completely”, the “microcrystals intact in SEM images” value was “did not remain intact” and the “microcrystals of paclitaxel dissolve directly in the solution” value is given as “did not dissolve directly”.
As for `CCCCCCC(=O)OCC(COC(=O)CCCCCC)OC(=O)CCCCCC` [triheptanoylglycerol], in data set [3], the “state of paclitaxel microcrystals in the suspension after 100 h” value is recorded as “partially dissolved”, the “microcrystals intact in SEM images” value is recorded as “did not remain intact” and the “microcrystals of paclitaxel dissolve directly in the solution” value is given as “did not dissolve directly”. For the same compound, the “paclitaxel microcrystals on temperature increase” value in data set [3] (temperature increased (50° C.)) is given as “dissolved”.

The record behind these values is patent US20240082463A1, “COATED MEDICAL PRODUCT” (HEMOTEQ AG, priority 2020, published 2024).
